Laboratory results reported in patent publication US9532990B2 (Zhejiang DTRM Biopharma Co. Ltd., priority 2014, dated 2017).

Assay: Toxicity and toxicokinetic studies, 28-day rat and dog
Conditions: 28-day rat and dog studies
Text: Toxicity and toxicokinetic (TK) studies of the compounds can be performed by well known methods.

C=CC(=O)N1CC[C@@H](n2nc(-c3ccc(Oc4c(F)c(F)cc(F)c4F)cc3F)c3c(N)ncnc32)C1 [Compound 45, 1-((R)-3-(4-amino-3-(2-fluoro-4-(2,3,5,6-tetrafluorophenoxy)phenyl)-1H-pyrazolo[3,4-d]pyrimidin-1-yl)pyrrolidin-1-yl)prop-2-en-1-one]
drug exposure, Day 1 versus Day 28: no significant difference in drug exposure between Day 1 and Day 28
drug exposure, male versus female: no significant difference in drug exposure between male and female
